Drawing on patent US20250236609A1, “VPS34 INHIBITORS AND METHODS OF USE THEREOF” (Deciphera Pharmaceuticals, LLC, priority 2023, published 2025), this text covers inhibition and IC50 for 9 molecules.

One assay deals with PI3Kd (p110δ/p85α) (Homo sapiens (Human), UniProt O00329). As to the kind of experiment: Lipid kinase selectivity panel (Reaction Biology). Type of assay: biochemical. The following applies: 1 μM compound, single dose duplicates, 10 μM ATP; read-out: Percent inhibition relative to DMSO control, PI3Kd (p110δ/p85α). The method, then: (§1) The compounds of the present invention were tested in a standard lipid kinase selectivity panel: 16 other lipid kinases (Reaction Biology, Malvern, PA, USA), under conditions of non-disclosure, non-dissemination, and non-use. In brief, compounds (see Table 2) were tested at in single dose duplicates at 1 μM against lipid kinases, including PI3Kα, PI3Kβ, and PI3Kδ, and reactions were carried out at 10 μM ATP.

In a further assay the target is PI3K (p110α/p65α) (Homo sapiens (Human), UniProt P42336). In words: Lipid kinase selectivity panel (Reaction Biology). Type of assay: biochemical. Conditions: 1 μM compound, single dose duplicates, 10 μM ATP; read-out: Percent inhibition relative to DMSO control, PI3K (p110α/p65α). The method, then: as §1
Assay [1] deals with PI3K (p110α (H1047R)/p85α) (Homo sapiens (Human), UniProt P42336, H1047R). In words: Lipid kinase selectivity panel (Reaction Biology). It counts as biochemical. Conditions: 1 μM compound, single dose duplicates, 10 μM ATP; read-out: Percent inhibition relative to DMSO control, PI3K (p110α (H1047R)/p85α). As to the method:
as §1

For another assay, the target named is PI3Kb (p110β/p85α) (Homo sapiens (Human), UniProt P42338). In words: Lipid kinase selectivity panel (Reaction Biology). The following applies: 1 μM compound, single dose duplicates, 10 μM ATP; read-out: Percent inhibition relative to DMSO control, PI3Kb (p110β/p85α). Type of assay: biochemical. As to the method:
as §1

Assay [2] has as its target PI3K (p110α (E542K)/p85α) (Homo sapiens (Human), UniProt P42336, E542K). In words: Lipid kinase selectivity panel (Reaction Biology). Type of assay: biochemical. Conditions: 1 μM compound, single dose duplicates, 10 μM ATP; read-out: Percent inhibition relative to DMSO control, PI3K (p110α (E542K)/p85α). The method, then: as §1
The target of the next assay is PI3KC2α (Homo sapiens (Human), UniProt O00443). As to the kind of experiment: Lipid kinase selectivity panel (Reaction Biology). The following applies: 1 μM compound, single dose duplicates, 10 μM ATP; read-out: Percent inhibition relative to DMSO control, PI3KC2α. Type of assay: biochemical. As to the method: as §1
The target in another assay is PI3Kα (p110α/p85α) (Homo sapiens (Human), UniProt P42336). As to the kind of experiment: Lipid kinase selectivity panel (Reaction Biology). The following applies: 1 μM compound, single dose duplicates, 10 μM ATP; read-out: Percent inhibition relative to DMSO control, PI3Kα (p110α/p85α). It counts as biochemical. The method, then:
as §1

The target of assay [3] is PI3K (p110α (E545K)/p85α) (Homo sapiens (Human), UniProt P42336, E545K). As to the kind of experiment: Lipid kinase selectivity panel (Reaction Biology). It counts as biochemical. Conditions: 1 μM compound, single dose duplicates, 10 μM ATP; read-out: Percent inhibition relative to DMSO control, PI3K (p110α (E545K)/p85α). The method, then: as §1
The target of another assay is PI3Kg (p110γ) (Homo sapiens (Human), UniProt P48736). As to the kind of experiment: Lipid kinase selectivity panel (Reaction Biology). Type of assay: biochemical. The following applies: 1 μM compound, single dose duplicates, 10 μM ATP; read-out: Percent inhibition relative to DMSO control, PI3Kg (p110γ). The method, then:
as §1

The target of a further assay is VPS34 (Homo sapiens (Human), UniProt Q8NEB9). As to the kind of experiment: Biochemical Assay for VPS34 (ADP-Glo kinase activity assay). Conditions: 25 nM VPS34, 1 mM ATP, 1-hour incubation at 37° C.; read-out: VPS34 (Inhibition of biochemical activity of VPS34, IC50). As to the method: Activity of VPS34 kinase was determined using an ADP-Glo kinase activity assay (Promega Corp). Assays were conducted in 384-well plates (5 μL assay volume) using 25 nM VPS34 (ThermoFisher Scientific), […] PI:3PS Lipid Kinase Substrate (Promega Corp.), and 1 mM ATP in kinase buffer. Inhibition of VPS34 was measured by adding serial diluted test compound (final assay concentration of 0.1% DMSO) followed by a 1-hour incubation at 37° C. ADP-Glo reagent was then added ([…]) followed by a 40 min incubation at rt. Kinase detection reagent was then added ([…]) and followed by a 60 min incubation at rt. Luminescence was then detected. The RLU at each compound concentration of was converted to percent inhibition using controls (i.e., reaction with no test compound and reaction with a known inhibitor) and IC50 values were calculated by fitting a four-parameter sigmoidal curve to the data using GeneData Screener software.
VPS34 Protein Sequence (Full Length with GST Tag)
(In general: ADP-Glo turns the ADP formed in a reaction into a luminescent signal.)

PI3K (p110α (H1047R)/p85α), sequence (P42336 whole entry H1047R): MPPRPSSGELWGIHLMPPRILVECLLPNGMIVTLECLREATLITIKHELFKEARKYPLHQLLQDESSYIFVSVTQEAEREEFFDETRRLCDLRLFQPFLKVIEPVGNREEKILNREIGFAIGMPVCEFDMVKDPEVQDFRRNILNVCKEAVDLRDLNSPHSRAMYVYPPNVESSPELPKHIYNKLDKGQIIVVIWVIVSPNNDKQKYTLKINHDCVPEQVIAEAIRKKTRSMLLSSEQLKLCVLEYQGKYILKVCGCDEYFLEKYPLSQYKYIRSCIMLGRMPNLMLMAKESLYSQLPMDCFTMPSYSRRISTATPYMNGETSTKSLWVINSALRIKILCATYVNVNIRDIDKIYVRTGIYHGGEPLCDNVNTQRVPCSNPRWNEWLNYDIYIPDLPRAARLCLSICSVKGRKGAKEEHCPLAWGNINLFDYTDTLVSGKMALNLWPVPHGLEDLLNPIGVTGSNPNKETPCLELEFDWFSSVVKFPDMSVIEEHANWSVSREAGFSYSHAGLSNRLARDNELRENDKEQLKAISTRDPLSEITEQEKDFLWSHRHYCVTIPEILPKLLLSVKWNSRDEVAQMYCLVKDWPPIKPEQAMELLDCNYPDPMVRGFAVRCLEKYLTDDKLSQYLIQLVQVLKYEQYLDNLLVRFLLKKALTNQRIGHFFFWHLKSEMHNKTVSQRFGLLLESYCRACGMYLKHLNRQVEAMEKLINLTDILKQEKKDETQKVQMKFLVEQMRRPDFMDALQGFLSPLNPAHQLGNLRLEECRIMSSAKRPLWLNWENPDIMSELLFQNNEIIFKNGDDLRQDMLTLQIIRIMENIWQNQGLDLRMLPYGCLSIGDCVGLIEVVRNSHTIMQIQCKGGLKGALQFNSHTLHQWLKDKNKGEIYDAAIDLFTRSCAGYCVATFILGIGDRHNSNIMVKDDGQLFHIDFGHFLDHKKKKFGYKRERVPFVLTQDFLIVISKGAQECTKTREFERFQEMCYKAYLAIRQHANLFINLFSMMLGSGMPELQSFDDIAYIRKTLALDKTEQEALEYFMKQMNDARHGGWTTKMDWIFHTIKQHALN
PI3K (p110α (H1047R)/p85α), sequence (P27986 whole entry partner): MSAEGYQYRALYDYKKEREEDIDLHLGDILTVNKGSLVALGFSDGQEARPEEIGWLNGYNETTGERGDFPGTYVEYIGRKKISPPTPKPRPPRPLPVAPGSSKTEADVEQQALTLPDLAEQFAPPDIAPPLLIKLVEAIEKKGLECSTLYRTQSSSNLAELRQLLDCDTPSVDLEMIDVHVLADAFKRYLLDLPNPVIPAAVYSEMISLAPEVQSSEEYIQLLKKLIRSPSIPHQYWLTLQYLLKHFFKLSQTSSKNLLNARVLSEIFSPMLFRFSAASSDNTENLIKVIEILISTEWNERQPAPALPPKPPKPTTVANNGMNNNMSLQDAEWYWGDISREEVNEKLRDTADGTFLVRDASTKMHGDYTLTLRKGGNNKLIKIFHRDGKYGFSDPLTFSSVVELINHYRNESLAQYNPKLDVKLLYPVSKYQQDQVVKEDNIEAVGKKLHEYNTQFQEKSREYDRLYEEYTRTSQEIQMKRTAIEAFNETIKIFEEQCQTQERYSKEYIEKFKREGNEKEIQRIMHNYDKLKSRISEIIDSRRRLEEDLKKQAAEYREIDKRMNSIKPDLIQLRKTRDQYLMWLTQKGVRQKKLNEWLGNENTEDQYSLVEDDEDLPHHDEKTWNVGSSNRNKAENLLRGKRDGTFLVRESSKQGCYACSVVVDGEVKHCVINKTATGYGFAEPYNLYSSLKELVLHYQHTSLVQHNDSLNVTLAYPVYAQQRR
PI3K (p110α/p65α), sequence (P42336 whole entry, species assumed): as the sequence (P42336 whole entry H1047R) above, with R1047H counted along it
PI3Kα (p110α/p85α), sequence (P42336 whole entry, species assumed): as the sequence (P42336 whole entry H1047R) above, with R1047H counted along it
PI3Kα (p110α/p85α), sequence (P27986 whole entry partner, species assumed): as the sequence (P27986 whole entry partner) above
PI3K (p110α (E542K)/p85α), sequence (P42336 whole entry E542K): as the sequence (P42336 whole entry H1047R) above, with E542K, R1047H counted along it
PI3K (p110α (E542K)/p85α), sequence (P27986 whole entry partner): as the sequence (P27986 whole entry partner) above
PI3KC2α, sequence (O00443 whole entry, species assumed): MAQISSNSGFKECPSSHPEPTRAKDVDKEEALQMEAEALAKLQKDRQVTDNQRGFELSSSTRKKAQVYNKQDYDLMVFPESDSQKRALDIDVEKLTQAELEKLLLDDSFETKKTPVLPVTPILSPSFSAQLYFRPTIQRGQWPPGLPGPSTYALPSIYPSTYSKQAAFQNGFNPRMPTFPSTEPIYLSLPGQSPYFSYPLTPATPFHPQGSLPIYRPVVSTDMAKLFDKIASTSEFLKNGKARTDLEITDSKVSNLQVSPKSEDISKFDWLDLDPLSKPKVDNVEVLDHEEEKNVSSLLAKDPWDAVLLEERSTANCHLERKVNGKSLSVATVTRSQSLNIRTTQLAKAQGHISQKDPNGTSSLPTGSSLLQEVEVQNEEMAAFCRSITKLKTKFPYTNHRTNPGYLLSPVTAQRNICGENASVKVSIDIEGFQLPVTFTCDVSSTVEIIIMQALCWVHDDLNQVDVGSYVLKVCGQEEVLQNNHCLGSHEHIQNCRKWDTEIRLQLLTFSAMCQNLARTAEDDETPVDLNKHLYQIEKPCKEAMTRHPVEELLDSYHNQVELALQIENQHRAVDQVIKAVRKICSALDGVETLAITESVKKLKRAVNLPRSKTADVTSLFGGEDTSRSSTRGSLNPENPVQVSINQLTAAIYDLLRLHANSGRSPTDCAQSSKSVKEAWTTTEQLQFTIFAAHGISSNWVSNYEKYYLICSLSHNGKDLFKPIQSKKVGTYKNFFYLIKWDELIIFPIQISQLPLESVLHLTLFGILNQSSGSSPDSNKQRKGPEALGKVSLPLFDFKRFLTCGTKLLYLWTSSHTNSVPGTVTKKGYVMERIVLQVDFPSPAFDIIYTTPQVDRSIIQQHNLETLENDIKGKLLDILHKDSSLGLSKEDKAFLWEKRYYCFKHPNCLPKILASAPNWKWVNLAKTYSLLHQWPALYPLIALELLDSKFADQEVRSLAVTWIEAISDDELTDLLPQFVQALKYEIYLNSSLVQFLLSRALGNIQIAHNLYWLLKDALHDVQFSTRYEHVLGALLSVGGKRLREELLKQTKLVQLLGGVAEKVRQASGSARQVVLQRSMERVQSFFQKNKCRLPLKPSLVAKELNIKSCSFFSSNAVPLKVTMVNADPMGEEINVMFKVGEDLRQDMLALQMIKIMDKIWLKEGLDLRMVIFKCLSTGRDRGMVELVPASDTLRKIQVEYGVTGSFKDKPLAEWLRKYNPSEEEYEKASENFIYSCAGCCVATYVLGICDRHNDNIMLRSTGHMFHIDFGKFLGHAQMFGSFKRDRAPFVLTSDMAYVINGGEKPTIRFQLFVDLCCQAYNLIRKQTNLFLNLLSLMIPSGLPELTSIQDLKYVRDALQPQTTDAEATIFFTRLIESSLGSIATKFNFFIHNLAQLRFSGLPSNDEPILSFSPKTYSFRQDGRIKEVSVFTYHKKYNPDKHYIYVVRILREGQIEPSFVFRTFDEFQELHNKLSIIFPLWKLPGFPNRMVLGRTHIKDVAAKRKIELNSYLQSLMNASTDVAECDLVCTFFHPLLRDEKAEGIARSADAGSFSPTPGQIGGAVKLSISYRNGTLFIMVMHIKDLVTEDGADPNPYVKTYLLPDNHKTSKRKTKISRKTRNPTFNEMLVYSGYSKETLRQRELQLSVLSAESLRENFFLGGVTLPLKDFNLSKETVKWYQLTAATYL
PI3Kd (p110δ/p85α), sequence (O00329 whole entry, species assumed): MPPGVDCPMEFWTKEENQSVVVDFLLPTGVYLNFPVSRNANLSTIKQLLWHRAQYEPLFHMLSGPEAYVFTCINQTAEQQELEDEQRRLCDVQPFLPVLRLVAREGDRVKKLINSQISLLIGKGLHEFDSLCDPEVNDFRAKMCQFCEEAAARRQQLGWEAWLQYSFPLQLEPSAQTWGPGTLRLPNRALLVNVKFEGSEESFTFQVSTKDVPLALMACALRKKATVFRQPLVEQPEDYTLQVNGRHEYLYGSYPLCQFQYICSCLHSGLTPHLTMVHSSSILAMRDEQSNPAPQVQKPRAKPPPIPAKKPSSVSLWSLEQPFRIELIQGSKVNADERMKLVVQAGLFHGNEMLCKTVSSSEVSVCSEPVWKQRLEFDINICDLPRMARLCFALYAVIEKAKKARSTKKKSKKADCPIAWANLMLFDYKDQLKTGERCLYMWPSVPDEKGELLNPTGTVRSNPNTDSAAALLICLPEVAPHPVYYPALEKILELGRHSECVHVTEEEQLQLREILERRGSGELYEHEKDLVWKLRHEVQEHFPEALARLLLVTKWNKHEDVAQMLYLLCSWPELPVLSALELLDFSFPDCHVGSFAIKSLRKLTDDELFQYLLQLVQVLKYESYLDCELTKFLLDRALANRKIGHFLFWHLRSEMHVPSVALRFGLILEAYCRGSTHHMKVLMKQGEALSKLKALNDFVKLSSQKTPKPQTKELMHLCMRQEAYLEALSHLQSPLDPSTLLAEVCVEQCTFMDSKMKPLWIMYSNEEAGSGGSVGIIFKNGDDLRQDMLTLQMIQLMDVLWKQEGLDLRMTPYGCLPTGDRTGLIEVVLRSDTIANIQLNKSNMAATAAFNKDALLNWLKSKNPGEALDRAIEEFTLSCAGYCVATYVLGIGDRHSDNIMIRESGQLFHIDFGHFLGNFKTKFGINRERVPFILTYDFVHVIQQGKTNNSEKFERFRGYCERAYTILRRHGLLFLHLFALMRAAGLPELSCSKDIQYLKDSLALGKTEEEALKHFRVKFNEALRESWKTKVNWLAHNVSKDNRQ
PI3Kd (p110δ/p85α), sequence (P27986 whole entry partner, species assumed): as the sequence (P27986 whole entry partner) above
PI3K (p110α (E545K)/p85α), sequence (P42336 whole entry E545K): as the sequence (P42336 whole entry H1047R) above, with E545K, R1047H counted along it
PI3K (p110α (E545K)/p85α), sequence (P27986 whole entry partner): as the sequence (P27986 whole entry partner) above

By IC50 is commonly meant the concentration needed to halve the response being measured. Consider `Cc1cnc(NC(=O)CC2CNCC2(F)F)cc1-c1cc(N2CCCC[C@@H]2C(F)(F)F)[nH]c(=O)c1` (stereo partly drawn) [Example 22], for which the inhibition at 1 µM on PI3Kd (p110δ/p85α) is 4%; on PI3K (p110α/p65α), -4%; in assay [1], -4%; on PI3Kb (p110β/p85α) it was -3%; in [2], -4%; on PI3KC2α, 2%. Also, the inhibition at 1 µM on PI3Kα (p110α/p85α) is 3%; in assay [3], -1%; at PI3Kg (p110γ), -8%. The IC50 at VPS34 was in the range of 100 to 500 nM.

Consider `CNCC(=O)Nc1cc(-c2cc(N3CCCC[C@@H]3C(F)(F)F)[nH]c(=O)c2)c(C)cn1` [Example 24], for which the inhibition at 1 µM on PI3Kd (p110δ/p85α) was -9%; on PI3K (p110α/p65α), -6%; in [1], -17%; at PI3Kb (p110β/p85α), -9%; in [2], -4%; on PI3KC2α, 2%. The inhibition at 1 µM at PI3Kα (p110α/p85α) was -1%; in [3], -2%; at PI3Kg (p110γ), -7%. Moreover, the 50% inhibitory concentration (IC50) on VPS34 was in the range of 100 to 500 nM.

As for `Cc1cnc(NC(=O)CCN(C)C)cc1-c1cc(N2CCCC[C@@H]2C(F)(F)F)[nH]c(=O)c1` [Example 25], the inhibition at 1 µM is -7% on PI3Kd (p110δ/p85α); 0% at PI3K (p110α/p65α); -7% in assay [1]; -7% at PI3Kb (p110β/p85α); 1% in assay [2]; -5% at PI3KC2α. Further, the values for the inhibition at 1 µM (at PI3Kα (p110α/p85α); in [3]; at PI3Kg (p110γ)) were 4%, -1% and -4%, respectively. In addition, the half-inhibitory concentration (IC50) on VPS34 was 100 to 500 nM.

Regarding `Cc1cnc(NC(=O)CCN2CCCC2)cc1-c1cc(N2CCCC[C@@H]2C(F)(F)F)[nH]c(=O)c1` [Example 26], the inhibition at 1 µM on PI3Kd (p110δ/p85α) is -5%; on PI3K (p110α/p65α), -4%; in assay [1], -8%; at PI3Kb (p110β/p85α), -10%; in assay [2], -2%; on PI3KC2α, 4%. In addition, the inhibition at 1 µM at PI3Kα (p110α/p85α) is -2%; in assay [3], -1%; on PI3Kg (p110γ) it was -5%. Moreover, on VPS34, the half-maximal inhibitory concentration (IC50) lay in the range of 100 to 500 nM.

Consider `Cc1cnc(NC(=O)CC2CNC2)cc1-c1cc(N2CCCC[C@@H]2C(F)(F)F)[nH]c(=O)c1` [Example 27], for which the inhibition at 1 µM is 2% on PI3Kd (p110δ/p85α); 7% on PI3K (p110α/p65α); -11% in [1]; -1% on PI3Kb (p110β/p85α); 1% in assay [2]; 0% on PI3KC2α. Besides, the results for the inhibition at 1 µM (on PI3Kα (p110α/p85α); in [3]; at PI3Kg (p110γ)) were 4%, 1% and -8%, respectively. For the same molecule, the IC50 at VPS34 lay within 100 to 500 nM.

Take `Cc1cnc(NC(=O)OC2CC3(CNC3)C2)cc1-c1cc(N2CCCC[C@@H]2C(F)(F)F)[nH]c(=O)c1` [Example 28]: the inhibition at 1 µM at PI3Kd (p110δ/p85α) was 6%; at PI3K (p110α/p65α), -3%; in assay [1], -3%; at PI3Kb (p110β/p85α) it was 0%; in assay [2], -20%; at PI3KC2α, 3%. For the same molecule, the inhibition at 1 µM was -31% on PI3Kα (p110α/p85α), -5% in [3] and -10% at PI3Kg (p110γ). The IC50 on VPS34 fell in the range of 100 to 500 nM.

Take `Cc1nccc(Nc2cc(-c3cc(-c4cccnc4C(F)(F)F)[nH]c(=O)c3)c(C)cn2)n1` [Example 38]: the inhibition at 1 µM came out at 52% on PI3Kd (p110δ/p85α); 19% at PI3K (p110α/p65α); 23% in [1]; 18% on PI3Kb (p110β/p85α); 16% in assay [2]; 4% on PI3KC2α. The figures for the inhibition at 1 µM (at PI3Kα (p110α/p85α); in assay [3]; on PI3Kg (p110γ)) were 24%, 24% and 66%, respectively. On VPS34, the half-inhibitory concentration (IC50) was at most 100 nM.

Regarding `Cc1nccc(Nc2cc(-c3cc(N4CCCC[C@@H]4C(F)(F)F)[nH]c(=O)c3)c(C)cn2)n1` [Example 77], the inhibition at 1 µM at PI3Kd (p110δ/p85α) turned out to be 17%; at PI3K (p110α/p65α) it was 24%; in assay [1], 22%; on PI3Kb (p110β/p85α), 11%; in [2] it was 33%; on PI3KC2α it was 2%. The inhibition at 1 µM at PI3Kα (p110α/p85α) came to 30%; in assay [3], 28%; on PI3Kg (p110γ), 65%. Moreover, at VPS34, the IC50 is at most 100 nM.

Consider `COC(=O)Nc1cc(-c2cc(-c3cccnc3C(F)(F)F)[nH]c(=O)c2)c(C)cn1` [Example 78], for which the inhibition at 1 µM is 10% on PI3Kd (p110δ/p85α); 15% at PI3K (p110α/p65α); 8% in assay [1]; 14% at PI3Kb (p110β/p85α); 14% in assay [2]; -3% at PI3KC2α. Also, the inhibition at 1 µM on PI3Kα (p110α/p85α) is 20%; in [3] it was 12%; at PI3Kg (p110γ) it was 30%. The 50% inhibitory concentration (IC50) on VPS34 fell in the range of 100 to 500 nM.
